Source: the supplement of paper PMC10307832

Legend:
Test in all cases: relative viability (nuclei count vs DMSO), 5 days (fraction); higher = more cells survive
EHT 1864 + Pemetrexed = compound: C1COCCN1CC2=CC(=O)C(=CO2)OCCCCCSC3=C4C=CC(=CC4=NC=C3)C(F)(F)F [EHT 1864] + Nc1nc2[nH]cc(CCc3ccc(C(=O)N[C@@H](CCC(=O)O)C(=O)O)cc3)c2c(=O)[nH]1 [Pemetrexed] (partner 0.2 µM)
Summary of the method: (§1)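 Lung cancer cell lines were pin-tool dosed in 1536-well plates on the day after seeding, with either a lone drug or a fixed anchor-drug dose plus five library-drug doses (not always all listed) in √10 steps. Nuclei were counted on 4× images after 5 days. Relative viability is the ratio of treated-well to vehicle-well nuclei counts, with each value a median of duplicate plates.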

EHT 1864 + Navitoclax = compound: C1COCCN1CC2=CC(=O)C(=CO2)OCCCCCSC3=C4C=CC(=CC4=NC=C3)C(F)(F)F [EHT 1864] + CC1(C)CCC(c2ccc(Cl)cc2)=C(CN2CCN(c3ccc(C(=O)NS(=O)(=O)c4ccc(N[C@H](CCN5CCOCC5)CSc5ccccc5)c(S(=O)(=O)C(F)(F)F)c4)cc3)CC2)C1 [Navitoclax] (partner 0.5 µM)
Summary of the method: as §1

EHT 1864 + Trametinib = compound: C1COCCN1CC2=CC(=O)C(=CO2)OCCCCCSC3=C4C=CC(=CC4=NC=C3)C(F)(F)F [EHT 1864] + CC(=O)Nc1cccc(-n2c(=O)n(C3CC3)c(=O)c3c(Nc4ccc(I)cc4F)n(C)c(=O)c(C)c32)c1 [Trametinib] (partner 0.02 µM)
Summary of the method: as §1

EHT 1864 + Phenformin = compound: C1COCCN1CC2=CC(=O)C(=CO2)OCCCCCSC3=C4C=CC(=CC4=NC=C3)C(F)(F)F [EHT 1864] + N=C(N)NC(=N)NCCc1ccccc1 [Phenformin] (partner 250 µM)
Summary of the method: as §1

| Cell Line | relative viability (EHT 1864 + Pemetrexed; first compound 0.04 µM) | relative viability (EHT 1864 + Pemetrexed; first compound 0.1265 µM) | relative viability (EHT 1864 + Pemetrexed; first compound 0.4 µM) | relative viability (EHT 1864 + Pemetrexed; first compound 1.265 µM) | relative viability (EHT 1864 + Pemetrexed; first compound 4 µM) | relative viability (EHT 1864 + Navitoclax; first compound 0.04 µM) | relative viability (EHT 1864 + Navitoclax; first compound 0.1265 µM) | relative viability (EHT 1864 + Navitoclax; first compound 0.4 µM) | relative viability (EHT 1864 + Navitoclax; first compound 1.265 µM) | relative viability (EHT 1864 + Navitoclax; first compound 4 µM) | relative viability (EHT 1864 + Trametinib; first compound 0.04 µM) | relative viability (EHT 1864 + Trametinib; first compound 0.1265 µM) | relative viability (EHT 1864 + Trametinib; first compound 1.265 µM) | relative viability (EHT 1864 + Trametinib; first compound 4 µM) | relative viability (EHT 1864 + Phenformin; first compound 0.04 µM) | relative viability (EHT 1864 + Phenformin; first compound 0.1265 µM) | relative viability (EHT 1864 + Phenformin; first compound 0.4 µM) | relative viability (EHT 1864 + Phenformin; first compound 1.265 µM) | relative viability (EHT 1864 + Phenformin; first compound 4 µM) | relative viability (EHT 1864 + Trametinib; first compound 0.4 µM) |
| --- | --- | --- | --- | --- | --- | --- | --- | --- | --- | --- | --- | --- | --- | --- | --- | --- | --- | --- | --- | --- |
| H3255 | 0.532 | 0.603 | 0.576 | 0.572 | 0.561 | 0.561 | 0.506 | 0.457 | 0.441 | 0.448 | 0.561 | 0.527 | 0.65 | 0.67 | 0.383 | 0.394 | 0.424 | 0.36 | 0.399 | – |
| LXF-289 | 0.857 | 0.894 | 0.835 | 0.769 | 0.843 | 0.952 | 0.837 | 0.885 | 0.811 | 0.939 | 0.676 | 0.609 | 0.616 | 0.657 | 0.517 | 0.463 | 0.507 | 0.549 | 0.547 | 0.615 |
| UMC-11 | 0.763 | 0.706 | 0.843 | 0.764 | 0.888 | 0.345 | 0.294 | 0.27 | 0.304 | 0.322 | 0.727 | 0.496 | 0.74 | 0.967 | 0.356 | 0.275 | – | 0.324 | 0.31 | 0.692 |
| LC-2-ad | 0.265 | 0.271 | 0.247 | 0.274 | 0.308 | 0.49 | – | 0.49 | 0.382 | 0.39 | 0.91 | 0.816 | 0.868 | 0.79 | 0.574 | – | 0.632 | 0.64 | 0.696 | 0.895 |
| NCI-H1793 | 0.674 | 0.699 | 0.929 | 0.814 | 0.828 | – | 0.366 | 0.485 | 0.364 | 0.387 | 0.37 | 0.356 | 0.428 | 0.434 | 0.301 | – | 0.383 | – | 0.392 | 0.465 |
| A-427 | 0.979 | 1.01 | 0.952 | 0.931 | 0.935 | 1.15 | 0.941 | 0.823 | 0.911 | 0.884 | 0.698 | 0.837 | 0.812 | 0.736 | 0.343 | 0.309 | 0.282 | 0.285 | 0.265 | 0.758 |
| NCI-H322M | 0.606 | 0.64 | 0.596 | 0.678 | 0.604 | 1.13 | 1.26 | 1.13 | 1.29 | 1.23 | 0.525 | 0.525 | 0.595 | 0.595 | 0.798 | 0.739 | 0.752 | 0.783 | 0.824 | 0.544 |
| HCC-366 | 0.159 | 0.145 | 0.136 | 0.15 | 0.152 | 1.14 | – | 1.01 | 0.995 | 1.14 | 0.38 | 0.3 | 0.413 | 0.285 | 0.616 | 0.538 | 0.593 | 0.511 | 0.585 | 0.318 |
